Results published in ChEMBL document CHEMBL1201862, “PubChem BioAssay data set” (2004).
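The compound was tested at five concentrations on cells cultured in 96-well plates, with a 48-hour exposure period. Here, GI50 denotes the concentration required for 50% inhibition of growth.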 Calls of active or inactive are those of the source. Cut-off read from the data, not from the text of the source: active = GI50 up to about 1.1 µM and inactive = higher.

How the values were obtained:
Assay in all cases: inhibition of tumour cell growth, NCI panel, 48 h
A549 = system: A549
CCRF-CEM = system: CCRF-CEM
HCT-15 = system: HCT-15
KM12 = system: KM12
MDA-N = system: MDA-N
Malme-3M = system: Malme-3M
NCI-H226 = system: NCI-H226
NCI-H460 = system: NCI-H460
NCI-H522 = system: NCI-H522
OVCAR-8 = system: OVCAR-8
SF-268 = system: SF-268
SK-MEL-2 = system: SK-MEL-2
SK-MEL-5 = system: SK-MEL-5
SK-OV-3 = system: SK-OV-3
SNB-75 = system: SNB-75
T47D = system: T47D
TK-10 = system: TK-10
UACC-257 = system: UACC-257
BT-549 = system: BT-549

SMILES	GI50 (A549)	GI50 (CCRF-CEM)	GI50 (HCT-15)	GI50 (KM12)	GI50 (MDA-N)	GI50 (Malme-3M)	GI50 (NCI-H226)	GI50 (NCI-H460)	GI50 (NCI-H522)	GI50 (OVCAR-8)	GI50 (SF-268)	GI50 (SK-MEL-2)	GI50 (SK-MEL-5)	GI50 (SK-OV-3)	GI50 (SNB-75)	GI50 (T47D)	GI50 (TK-10)	GI50 (UACC-257)	GI50 (BT-549)
Cc1cc(C(F)(F)F)cc(-n2nc(NS(=O)(=O)c3cc(C)c(Cl)cc3S)nc2N)n1	36.6 µM (inactive)	23.7 µM (inactive)	39.5 µM	42.9 µM (inactive)	52.8 µM (inactive)	> 100 µM (inactive)	40.3 µM (inactive)	24.4 µM (inactive)	32 µM (inactive)	45.4 µM (inactive)	92.9 µM (inactive)	26.2 µM (inactive)	37.1 µM (inactive)	81.7 µM (inactive)	> 100 µM (inactive)	57.1 µM (inactive)	> 100 µM (inactive)	> 100 µM (inactive)	
COc1ccc(C2c3cc4c(cc3OC(N3CCCCC3)C2C)OCO4)cc1 (centres undefined)	85.1 µM (inactive)	> 100 µM (inactive)	> 100 µM	> 100 µM (inactive)	> 100 µM (inactive)			> 100 µM (inactive)	83.6 µM (inactive)	> 100 µM (inactive)	> 100 µM (inactive)	> 100 µM (inactive)	> 100 µM (inactive)		35.6 µM (inactive)	71 µM (inactive)	> 100 µM (inactive)	> 100 µM (inactive)	
Oc1nc2cc3nc(O)c(O)nc3cc2nc1O	> 100 µM (inactive)	> 100 µM (inactive)	> 100 µM	> 100 µM (inactive)		> 100 µM (inactive)	> 100 µM (inactive)	> 100 µM (inactive)	> 100 µM (inactive)	> 100 µM (inactive)	> 100 µM (inactive)	> 100 µM (inactive)	> 100 µM (inactive)	> 100 µM (inactive)	> 100 µM (inactive)		> 100 µM (inactive)	> 100 µM (inactive)	> 100 µM (inactive)
O=C1NC(N2CCCCC2)=N/C1=C\c1ccccc1O	> 100 µM (inactive)	> 100 µM (inactive)	> 100 µM	> 100 µM (inactive)	> 100 µM (inactive)	23 µM (inactive)	36.6 µM (inactive)		19.8 µM (inactive)	> 100 µM (inactive)	> 100 µM (inactive)	> 100 µM (inactive)	50.2 µM (inactive)	> 100 µM (inactive)	27.9 µM (inactive)	> 100 µM (inactive)	> 100 µM (inactive)	> 100 µM (inactive)	
O=c1[nH]nc(-c2ccccc2)n1-c1cccc([N+](=O)[O-])c1	> 100 µM (inactive)	> 100 µM (inactive)	> 100 µM	> 100 µM (inactive)	> 100 µM (inactive)	> 100 µM (inactive)	> 100 µM (inactive)	> 100 µM (inactive)	> 100 µM (inactive)	> 100 µM (inactive)	> 100 µM (inactive)	> 100 µM (inactive)	> 100 µM (inactive)	> 100 µM (inactive)	> 100 µM (inactive)	> 100 µM (inactive)	> 100 µM (inactive)	> 100 µM (inactive)	
Cc1cccc(N(C(=O)Nc2ccc(Cl)c(Cl)c2)C2=NCC(C)S2)c1 (centres undefined)	38.9 µM (inactive)	46.1 µM (inactive)	41.6 µM	18.9 µM (inactive)	32.9 µM (inactive)	60.1 µM (inactive)		41.9 µM (inactive)		60.4 µM (inactive)	23.2 µM (inactive)	23.8 µM (inactive)	17.5 µM (inactive)	> 100 µM (inactive)	54.3 µM (inactive)	9.84 µM (inactive)	23.8 µM (inactive)	42.9 µM (inactive)	
N[C@@H](Cc1ccc2oc3cc(=O)c4ccccc4c-3nc2c1)C(=O)O	40.2 µM (inactive)	38.5 µM (inactive)	57.4 µM	> 100 µM (inactive)	16.6 µM (inactive)	3.37 µM (inactive)	34 µM (inactive)	31.1 µM (inactive)	39.7 µM (inactive)	49 µM (inactive)	> 100 µM (inactive)		11.7 µM (inactive)	> 100 µM (inactive)	15 µM (inactive)	> 100 µM (inactive)	> 100 µM (inactive)	18.1 µM (inactive)	
Cc1csc2c(=O)n(C3OC(CO)C(O)C3O)c(=O)[nH]c12 (centres undefined)	> 100 µM (inactive)	> 100 µM (inactive)		> 100 µM (inactive)	> 100 µM (inactive)	> 100 µM (inactive)	> 100 µM (inactive)	> 100 µM (inactive)	> 100 µM (inactive)	> 100 µM (inactive)	> 100 µM (inactive)		> 100 µM (inactive)		> 100 µM (inactive)		39.5 µM (inactive)	> 100 µM (inactive)	> 100 µM (inactive)
Cc1nnc2c3nnc(C)n3c3ccccc3n12	> 100 µM (inactive)	> 100 µM (inactive)	> 100 µM	> 100 µM (inactive)		> 100 µM (inactive)	> 100 µM (inactive)	> 100 µM (inactive)	> 100 µM (inactive)	> 100 µM (inactive)	> 100 µM (inactive)	> 100 µM (inactive)	> 100 µM (inactive)	> 100 µM (inactive)	> 100 µM (inactive)		> 100 µM (inactive)	> 100 µM (inactive)	
[N-]=[N+]=C(C(=O)C(=[N+]=[N-])C(=O)c1ccccc1)C(=O)c1ccccc1	> 100 µM (inactive)		> 100 µM	44.2 µM (inactive)	> 100 µM (inactive)	> 100 µM (inactive)		> 100 µM (inactive)	> 100 µM (inactive)	> 100 µM (inactive)	> 100 µM (inactive)	> 100 µM (inactive)	> 100 µM (inactive)		> 100 µM (inactive)		> 100 µM (inactive)	> 100 µM (inactive)	> 100 µM (inactive)
CC1(C)OCC(COC(=O)C=[N+]=[N-])O1 (centres undefined)		> 100 µM (inactive)	> 100 µM	> 100 µM (inactive)	> 100 µM (inactive)	> 100 µM (inactive)	> 100 µM (inactive)	13.2 µM (inactive)	> 100 µM (inactive)		> 100 µM (inactive)	> 100 µM (inactive)	> 100 µM (inactive)	> 100 µM (inactive)			> 100 µM (inactive)	> 100 µM (inactive)	> 100 µM (inactive)
CN1CC[C@@H](c2c(O)cc(O)c3c(=O)cc(-c4ccccc4Cl)oc23)[C@@H](O)C1	0.0543 µM (active)	0.0468 µM (active)	0.0399 µM	0.0303 µM (active)		0.124 µM (active)	0.0357 µM (active)	0.0352 µM (active)	0.0655 µM (active)	0.0401 µM (active)	0.0348 µM (active)	0.0366 µM (active)	0.0248 µM (active)	0.608 µM (active)	0.0251 µM (active)		0.0538 µM (active)	0.0552 µM (active)	0.0395 µM (active)
C1CCCCC2(CCCCCCCCC3(CCC1)OCCO3)OCCO2	> 100 µM (inactive)		> 100 µM	> 100 µM (inactive)	> 100 µM (inactive)	> 100 µM (inactive)	> 100 µM (inactive)	> 100 µM (inactive)	> 100 µM (inactive)	> 100 µM (inactive)	> 100 µM (inactive)	> 100 µM (inactive)	> 100 µM (inactive)	> 100 µM (inactive)	> 100 µM (inactive)	> 100 µM (inactive)	> 100 µM (inactive)	> 100 µM (inactive)	
C#CC(O)/C=C/C(O)CCCC(O)CC#CC(O)C#CC(O)CCCC(O)/C=C/CCCC(=O)CCCCCCCCCCCCCCCC(O)C(O)C#CC(=O)O (centres undefined)	> 50 µM (inactive)	14.1 µM (inactive)	> 50 µM	> 50 µM (inactive)	> 50 µM (inactive)	> 50 µM (inactive)	> 50 µM (inactive)	> 50 µM (inactive)	8.41 µM (inactive)	> 50 µM (inactive)	> 50 µM (inactive)	> 50 µM (inactive)	> 50 µM (inactive)	> 50 µM (inactive)	20.1 µM (inactive)	> 50 µM (inactive)	> 50 µM (inactive)	> 50 µM (inactive)	
CCCCCCCCCCCCCC(=O)O.O=CC(O)C(O)C(OC1OC(CO)C(O)C(O)C1O)C(O)CO (centres undefined)	80.2 µM (inactive)		22.9 µM	23.2 µM (inactive)		83.8 µM (inactive)	30.5 µM (inactive)	> 100 µM (inactive)	57.4 µM (inactive)	> 100 µM (inactive)	> 100 µM (inactive)	> 100 µM (inactive)	56.8 µM (inactive)	> 100 µM (inactive)	> 100 µM (inactive)	> 100 µM (inactive)	37.7 µM (inactive)	> 100 µM (inactive)	
Cc1c(Cl)ccc2c(=O)c3cccc(CC(=O)O)c3oc12	> 100 µM (inactive)	> 100 µM (inactive)	> 100 µM	> 100 µM (inactive)	> 100 µM (inactive)	> 100 µM (inactive)	> 100 µM (inactive)	> 100 µM (inactive)	> 100 µM (inactive)	> 100 µM (inactive)	> 100 µM (inactive)	> 100 µM (inactive)	> 100 µM (inactive)				> 100 µM (inactive)	> 100 µM (inactive)	38.5 µM (inactive)
c1ccc([P+](CCCCCC[P+](c2ccccc2)(c2ccccc2)c2ccccc2)(c2ccccc2)c2ccccc2)cc1	7.41 µM (inactive)	13.1 µM (inactive)	> 100 µM	3.85 µM (inactive)	16.1 µM (inactive)	37.3 µM (inactive)	8.87 µM (inactive)	9.38 µM (inactive)	7.24 µM (inactive)	13.3 µM (inactive)	3.49 µM (inactive)			62.2 µM (inactive)	5.2 µM (inactive)	4.92 µM (inactive)	8.36 µM (inactive)	1.59 µM (inactive)	
